Where “and” joins values, the source holds several entries; their conditions need not be identical. Identical values can stand only once.
Legend:
[1] = target: T1, Calf skin collagen Type I (Bos taurus, UniProt P02453+P02465); assay: Collagen crosslinking by 3DG in vitro (CNBr digestion, SDS-PAGE); assay type: biochemical; settings: 37° C., 24 hours
T1 construct: Calf skin collagen Type I (1.3 mg; Sigma); purchased Sigma; host or cells: calf skin (tissue-derived)
Procedure: Collagen type I was treated with 3DG in the presence or absence of arginine. The samples were subjected to cyanogen bromide (CNBr) digestion, electrophoresed on a 16.5% SDS Tris-tricine gel, and then the gels were processed using silver stain techniques to visualize the proteins. Lane 1 contains molecular weight marker standards. Lanes 2 and 5 contain 10 and 20 μl of the collagen mixture following CNBr digestion. Lanes 3 and 6 contain the collagen mixture treated with 3DG and then digested with CNBr, and loaded at 10 and 20 μl, respectively. Lanes 4 and 7 contain the mixture of collagen incubated with 5 mM 3DG and 10 mM arginine and then digested with CNBr, and loaded at 10 and 20 μl, respectively.
Collagen I was incubated in the presence or absence of 3DG in vitro. Calf skin collagen Type I (1.3 mg; Sigma) was incubated in 20 mM Na-phosphate buffer, pH 7.25, either alone, with 5 mM 3DG, or with 5 mM 3DG plus 10 mM arginine, in a total volume of 1 ml at 37° C. for 24 hours and then frozen and lyophilized. The residue was dissolved in 0.5 ml of 70% formic acid and cyanogen bromide was added (20:1, w/w). This solution was incubated at 30° C. for 18 hours. […] The extent of collagen crosslinking was determined by applying equal volumes of sample and analyzing by SDS-PAGE electrophoresis (16.5% Tris-tricine gel), as determined by the effects of 3DG on the migration of collagen.

3DG = assay: Plasma 3DG levels in diabetic and non-diabetic rats treated with 3-O-methyl sorbitollysine; assay type: in vivo, rat; settings: for plasma 3DG level: 50 mg/kg body weight injections, within one week
Procedure: A cohort of twelve diabetic rats was divided into two groups of six. The first group received saline-only injections, and the second received injections of 3-O-methyl sorbitollysine (50 mg/kg body weight) in saline solution. The same procedure was conducted on a cohort of twelve non-diabetic rats.

[2] = Locus of 3-O-methyl sorbitollysine uptake in vivo (recovery from tissues, urine, plasma); parameters: species or system rat
Procedure: […] Urine was collected for 3 hours, after which the rats were sacrificed. The tissues to be analyzed were removed and freeze clamped in liquid nitrogen. Perchloric acid extracts of the tissues were used for metabolite analysis. The tissues examined were taken from the brain, heart, muscle, sciatic nerve, spleen, pancreas, liver, and kidney. Plasma was also analyzed.

[3] = tested on: skin of STZ-diabetic rats; assay: Skin elasticity measurement (vacuum pull) in STZ-diabetic and normal rats; assay type: in vivo, rat; settings: 50 mg/kg daily subcutaneous, eight weeks
Procedure: Experiments were performed to determine the effects of DYN 12 on the loss of skin elasticity associated with diabetes. To this end, two groups of STZ-diabetic rats and two groups of normal rats were subjected to treatment with DYN 12 or saline. One group of STZ-diabetic rats (n=9) received daily subcutaneous injections of DYN 12 at 50 mg/kg for eight weeks, as did one group of normal rats (n=6). A group of control diabetic rats (n=10) and a group of normal rats (n=6) received saline instead of DYN 12. One rat was removed from the diabetic DYN 12 group after 2 weeks because its blood glucose readings were inconsistent (too low) with other diabetic rats.
A non-invasive procedure based on CyberDERM, Inc. technology utilizing a skin elasticity measurement device was used to test the effects of DYN 12 treatment on skin elasticity. The procedure provides for non-invasive measurement of skin elasticity based upon the amount of vacuum pull required to displace skin. A suction cup probe is adhered to an area of shaved skin in order to form an airtight seal. Then, a vacuum is applied to the area of the skin inside the suction cup until the skin is displaced past a sensor located inside the probe. Accordingly, the more pressure that is required to displace the skin, the less elastic the skin is.

diabetic rats = assay: Muscle strength / resistance to pull in alert restrained diabetic rats; assay type: in vivo, rat; settings: diabetic rats treated vs not treated; preliminary data
Source text: The present invention also encompasses methods for prevention of hair loss associated with or mediated by loss of microcirculation and/or loss of neuro-innervation in populations of aging, sclerodermic and/or in diabetic individuals. This is because 3DG is a known precursor to the formation of AGEs which are known to be causally connected to the development of neuropathy. […] This supports the concept that maintenance of nerve conduction and microcirculation that supports nerve innervation is deleteriously affected not only by AGEs, but also 3DG. Similarly, where 3DG would cause blockage of the microcirculation that supports nerve innervation of the hair follicle, the hair follicle will atrophy and die, as is the case in neuropathy. Accordingly, the present invention includes methods for preventing hair loss, where such hair loss is associated with or mediated by the presence of 3DG in the skin proximal to a hair follicle/shaft.
Skin elasticity measurements were also taken on the test subjects as described above, but without sedating the test animals before measurement. FIG. 15 illustrates skin elasticity measurements taken on the hind leg of the test subjects while the subjects were alert and being restrained by a technician.
In these experiments, the animals were fiercely fighting restraint and the results are different.

mouse mesangial cells = assay: Type IV collagen production in kidney cells in vitro; assay type: cell-based
Procedure: Type IV collagen production was measured in mouse mesangial cells. Controls (grown with […]) produced 300 ng of Type IV collagen per 10,000 cells, whereas fructoselysine treated cells (5 or 10 mM fructoselysine with 10 mM glucose) produced 560 and 1100 ng/10,000 cells.

[4] = parameters: species or system human; settings: in vivo
Procedure: Volunteers spent two days on a fructoselysine-free diet and then consumed 22.5 g of the food product prepared as described herein, thus effectively receiving a 2 gram dose of fructoselysine. Urine was collected at 2 hour intervals for 14 hours and a final collection was made at 24 hours. FL was measured by HPLC with a Waters 996 diode Array using a Waters C18 Free Amino Acid column at 46° C. and a gradient elution system of acetonitrile-methyl alcohol-water (45:15:40) into acetonitrile-sodium acetate-water (6:2:92) at 1 ml/min. Quantitation employed an internal standard of meglumine. 3DF was measured by HPLC after deionization of the sample. Analyses were performed on a Dionex DX-500 HPLC system employing a PA1 column (Dionex) and eluting with 32 mM sodium hydroxide at 1 ml/min. Quantitation was performed from standard curves obtained daily with synthetic 3DF. 3DG was measured by GC-MS after deionization of the sample. 3DG was derivatized with a 10-fold excess of diaminonaphthalene in PBS. Ethyl acetate extraction gave a salt free fraction which was converted to the trimethyl silyl ethers with Tri-Sil (Pierce). Analysis was performed on a Hewlett-Packard 5890 selected ion monitoring GC-MS system. […] Quantitation of 3DG employed selected ion monitoring using an internal standard of U-13C-3DG.

3-deoxyglucosone = assay: Reduction of urinary and plasma 3-deoxyglucosone in rats; assay type: in vivo, rat; settings: for Plasma 3-deoxyglucosone reduced / average reduction of urinary 3-deoxyglucosone: rats, 10 μmols intraperitoneal; for Plasma 3-deoxyglucosone reduced: plasma at end of three hours; for average reduction of urinary 3-deoxyglucosone: urine three hours after vs before, normalized to creatinine
Procedure: Urine was collected from six rats for three hours. A plasma sample was also obtained. The animals were then given 10 μmols of either sorbitollysine, mannitollysine, or galactitollysine by intraperitoneal injection. Urine was collected for another three hours, and a plasma sample obtained at the end of the three hours.
a. 3-deoxyglucosone was measured in the samples, as described in Example 5, below, and variable volumes were normalized to creatinine. The average reduction of urinary 3-deoxyglucosone was 50% by sorbitollysine, 35% by mannitollysine and 35% by galactitollysine. Plasma 3-deoxyglucosone was reduced 40% by sorbitollysine, 58% by mannitollysine and 50% by galactitollysine.
Three rats were treated as in b), immediately above, except meglumine (100 μmols) was injected intraperitoneally instead of the above-mentioned lysine derivatives. Three hours after the injection the average 3-deoxyglucosone concentrations in the urine were decreased 42%.
3DG was measured by GC-MS after deionization of the sample. 3DG was derivatized with a 10-fold excess of diaminonaphthalene in PBS. Ethyl acetate extraction gave a salt free fraction which was converted to the trimethyl silyl ethers with Tri-Sil (Pierce). Analysis was performed on a Hewlett-Packard 5890 selected ion monitoring GC-MS system. GC was performed on a fused silica capillary column (DB-5.25 mx. […]) using the following temperature program: injector port 250° C., initial column temperature 150° C. which is held for 1 minute, then increased to 290° C. at 16° C./minute and held for 15 minutes. Quantitation of 3DG employed selected ion monitoring using an internal standard of U-13C-3DG.

T1 sequence (P02453 162-1217 limits assumed): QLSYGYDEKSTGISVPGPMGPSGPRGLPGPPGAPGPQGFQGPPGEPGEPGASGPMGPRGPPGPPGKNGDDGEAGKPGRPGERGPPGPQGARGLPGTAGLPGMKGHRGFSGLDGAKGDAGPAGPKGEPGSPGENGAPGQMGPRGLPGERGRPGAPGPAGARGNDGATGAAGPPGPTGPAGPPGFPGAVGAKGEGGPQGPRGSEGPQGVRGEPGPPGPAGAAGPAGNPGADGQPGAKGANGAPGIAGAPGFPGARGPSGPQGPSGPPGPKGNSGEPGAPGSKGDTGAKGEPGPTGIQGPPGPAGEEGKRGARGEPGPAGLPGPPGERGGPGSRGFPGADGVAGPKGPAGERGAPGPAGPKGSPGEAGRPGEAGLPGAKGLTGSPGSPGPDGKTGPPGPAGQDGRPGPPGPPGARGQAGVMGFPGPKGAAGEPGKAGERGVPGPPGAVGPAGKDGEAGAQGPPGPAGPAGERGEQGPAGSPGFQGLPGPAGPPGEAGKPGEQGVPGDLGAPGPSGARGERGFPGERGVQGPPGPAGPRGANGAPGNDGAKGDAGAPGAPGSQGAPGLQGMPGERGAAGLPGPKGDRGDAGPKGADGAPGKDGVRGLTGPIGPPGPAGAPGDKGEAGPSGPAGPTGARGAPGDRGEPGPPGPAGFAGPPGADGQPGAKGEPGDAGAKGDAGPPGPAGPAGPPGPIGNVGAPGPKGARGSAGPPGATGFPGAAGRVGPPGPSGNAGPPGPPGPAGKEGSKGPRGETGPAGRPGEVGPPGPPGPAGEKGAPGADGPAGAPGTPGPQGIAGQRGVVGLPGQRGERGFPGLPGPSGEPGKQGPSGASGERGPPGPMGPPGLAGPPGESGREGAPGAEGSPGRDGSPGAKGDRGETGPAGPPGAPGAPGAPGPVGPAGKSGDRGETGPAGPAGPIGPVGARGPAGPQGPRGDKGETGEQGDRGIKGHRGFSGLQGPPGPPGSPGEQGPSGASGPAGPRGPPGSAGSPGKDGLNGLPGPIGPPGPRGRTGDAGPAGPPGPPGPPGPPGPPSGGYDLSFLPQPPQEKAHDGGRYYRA
T1 sequence (P02465 80-1117 limits assumed): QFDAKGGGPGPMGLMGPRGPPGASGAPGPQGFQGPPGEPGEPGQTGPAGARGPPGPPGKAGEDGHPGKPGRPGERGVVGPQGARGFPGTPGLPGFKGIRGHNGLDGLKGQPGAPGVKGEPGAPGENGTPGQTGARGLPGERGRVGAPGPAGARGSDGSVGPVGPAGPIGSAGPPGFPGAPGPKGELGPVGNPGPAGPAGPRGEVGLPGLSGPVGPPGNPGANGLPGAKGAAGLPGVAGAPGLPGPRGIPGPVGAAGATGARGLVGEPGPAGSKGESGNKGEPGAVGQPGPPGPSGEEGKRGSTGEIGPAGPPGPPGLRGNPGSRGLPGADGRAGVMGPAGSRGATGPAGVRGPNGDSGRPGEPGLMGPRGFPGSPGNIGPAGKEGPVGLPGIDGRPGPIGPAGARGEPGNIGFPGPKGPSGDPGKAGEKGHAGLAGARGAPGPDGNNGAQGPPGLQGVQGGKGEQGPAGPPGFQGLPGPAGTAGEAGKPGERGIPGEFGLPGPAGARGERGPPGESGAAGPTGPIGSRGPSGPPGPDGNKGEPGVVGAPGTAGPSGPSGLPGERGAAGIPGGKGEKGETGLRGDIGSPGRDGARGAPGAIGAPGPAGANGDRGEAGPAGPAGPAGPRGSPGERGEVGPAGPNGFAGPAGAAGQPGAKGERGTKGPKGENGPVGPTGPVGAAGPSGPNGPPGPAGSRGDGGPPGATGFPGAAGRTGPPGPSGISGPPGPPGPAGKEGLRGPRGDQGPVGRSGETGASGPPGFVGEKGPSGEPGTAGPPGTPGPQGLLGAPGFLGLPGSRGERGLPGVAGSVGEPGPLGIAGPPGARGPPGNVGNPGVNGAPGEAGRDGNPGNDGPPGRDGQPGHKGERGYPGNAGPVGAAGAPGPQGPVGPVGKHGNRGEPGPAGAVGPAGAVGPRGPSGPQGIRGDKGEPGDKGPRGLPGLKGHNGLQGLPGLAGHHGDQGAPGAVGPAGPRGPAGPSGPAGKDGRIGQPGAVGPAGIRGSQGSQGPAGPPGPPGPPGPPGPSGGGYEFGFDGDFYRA

O=CC(=O)C[C@H](O)[C@H](O)CO [3DG, 3-deoxyglucosone]
collagen crosslinking (migration on SDS-PAGE) ([1]; 5 mM 3DG): caused the collagen to migrate as if it had a higher molecular weight

CO[C@@H]([C@H](O)[C@H](O)CO)[C@@H](O)CNCCCC[C@H](N)C(=O)O [DYN 12, 3-O-methylsorbitollysine]
% Reduction of plasma 3DG vs saline only (3DG; Diabetic rats): 53%
plasma 3DG level (3DG; Diabetic rats): 0.44 ± 0.10 µM
% Reduction of plasma 3DG vs saline only (3DG; Non-diabetic rats): 43%
plasma 3DG level (3DG; Non-diabetic rats): 0.13 ± 0.02 µM
nmols 3OMeSL in kidneys ([2]; 13500 nmols injected intraperitoneally, sacrificed after 3 hours, one line per rat, listed as 3OMeSL): 8155 nmols and 3880 nmols and 10071 nmols and 6582 nmols and 5373 nmols and 4833 nmols
Nmols 3OMeSL in urine ([2]; 13500 nmols injected intraperitoneally, urine collected 3 hours, one line per rat (Rat # 2084-2089), listed as 3OMeSL): 4200 nmols and 1355 nmols and 2940 nmols and 1675 nmols and 1778 nmols and 2360 nmols
presence in urine and plasma ([2]; 3 hours after ip injection): The urine also contained 3-O-methyl sorbitollysine, but plasma did not
tissue extracts found to contain the compound ([2]; brain, heart, muscle, sciatic nerve, spleen, pancreas, liver, kidney examined 3 hours after ip injection): The only tissue extract found to contain 3-O-methyl sorbitollysine was that of the kidney
% 3OMeSL recovered (percentage of the injected dose recovered from urine and kidney) ([2]; urine plus kidneys, one line per rat, listed as 3OMeSL): 91.5% and 38.8% and 96.4% and 61.2% and 53.0% and 53.3%
total 3OMeSL recovered ([2]; urine plus kidneys, one line per rat, listed as 3OMeSL, in nmol): 12355 and 5235 and 13011 and 8257 and 7151 and 7193
amount of pressure needed to displace the skin [3]: 3.2+/−1.2 kPA
muscle strength measured while alert (diabetic rats): stronger muscle strength

N=C(N)NCCC[C@H](N)C(=O)O [arginine, reference compound]
inhibition of 3DG induced collagen crosslinking ([1]; 5 mM 3DG plus 10 mM arginine): fewer high molecular bands

NC(CCCCNCC(=O)C(O)C(O)C(O)CO)C(=O)O (stereo not drawn) [fructoselysine, 1-deoxy-1-(ε-aminolysine)-fructose]
Type IV collagen production (mouse mesangial cells; 5 mM fructoselysine with 10 mM glucose): 560 ng/10,000 cells
Type IV collagen production (mouse mesangial cells; 10 mM fructoselysine with 10 mM glucose): 1100 ng/10,000 cells
time of peak 3DF excretion in urine after the bolus [4]: about 4 hours

N[C@@H](CCCCNC[C@H](O)[C@@H](O)[C@@H](O)[C@H](O)CO)C(=O)O [galactitollysine]
Plasma 3-deoxyglucosone reduced (3-deoxyglucosone): 50%
average reduction of urinary 3-deoxyglucosone (3-deoxyglucosone): 35%

N[C@@H](CCCCNC[C@@H](O)[C@@H](O)[C@H](O)[C@H](O)CO)C(=O)O [mannitollysine]
Plasma 3-deoxyglucosone reduced (3-deoxyglucosone): 58%
average reduction of urinary 3-deoxyglucosone (3-deoxyglucosone): 35%

CNC[C@H](O)[C@@H](O)[C@H](O)[C@H](O)CO [meglumine]
average 3-deoxyglucosone concentrations in the urine decreased (3-deoxyglucosone; three rats, 100 μmols intraperitoneal, three hours after the injection): 42%

N[C@@H](CCCCNC[C@H](O)[C@@H](O)[C@H](O)[C@H](O)CO)C(=O)O [sorbitollysine]
Plasma 3-deoxyglucosone reduced (3-deoxyglucosone): 40%
average reduction of urinary 3-deoxyglucosone (3-deoxyglucosone): 50%

Reference: patent US20100297046A1, “Compositions and Methods Related to Fructosamine-3-Kinase Inhibitors” (DYNAMIS THERAPEUTICS, INC., priority 2006, published 2010)
